Drawing on US10160762B2, “6-alkyl dihydropyrazolopyrimidinone compounds as PDE2 inhibitors” (Merck Sharp & Dohme Corp., priority 2015, dated 2018), this text covers Ki for 23 compounds.

For the experiment, the target named is T1, human PDE2A1 (Homo sapiens, UniProt O00408).
T1 construct: GST; purchased BPS Bioscience (San Diego, Calif.) 60020; host or cells: insect cells
Put plainly: IMAP FP PDE assay, human PDE2A1. Format: biochemical. The procedure, abridged: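 FP (IMAP) read after 60 min room-temperature reaction of insect-cell GST-human PDE2A1 with 50 nM FAM-cAMP plus 1000 nM cGMP (pH 7.2 Tris, Mg2+, DTT). Compounds titrated 3-fold over ten points. Apparent Ki derived assuming KM of 10,000 nM; enzyme at 20% substrate turnover.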

[1] abbreviates: Lab B, read-out: Human PDE2 Ki (nM) Lab B.
Where [2] appears, read: Lab A, read-out: Human PDE2 Ki (nM) Lab A.

One may read the Ki as the dissociation constant of the complex between target and ligand, obtained from inhibition or displacement.

Where two headings read alike, the source gives them in different places.

T1 sequence (O00408 1-920 isoform O00408-2): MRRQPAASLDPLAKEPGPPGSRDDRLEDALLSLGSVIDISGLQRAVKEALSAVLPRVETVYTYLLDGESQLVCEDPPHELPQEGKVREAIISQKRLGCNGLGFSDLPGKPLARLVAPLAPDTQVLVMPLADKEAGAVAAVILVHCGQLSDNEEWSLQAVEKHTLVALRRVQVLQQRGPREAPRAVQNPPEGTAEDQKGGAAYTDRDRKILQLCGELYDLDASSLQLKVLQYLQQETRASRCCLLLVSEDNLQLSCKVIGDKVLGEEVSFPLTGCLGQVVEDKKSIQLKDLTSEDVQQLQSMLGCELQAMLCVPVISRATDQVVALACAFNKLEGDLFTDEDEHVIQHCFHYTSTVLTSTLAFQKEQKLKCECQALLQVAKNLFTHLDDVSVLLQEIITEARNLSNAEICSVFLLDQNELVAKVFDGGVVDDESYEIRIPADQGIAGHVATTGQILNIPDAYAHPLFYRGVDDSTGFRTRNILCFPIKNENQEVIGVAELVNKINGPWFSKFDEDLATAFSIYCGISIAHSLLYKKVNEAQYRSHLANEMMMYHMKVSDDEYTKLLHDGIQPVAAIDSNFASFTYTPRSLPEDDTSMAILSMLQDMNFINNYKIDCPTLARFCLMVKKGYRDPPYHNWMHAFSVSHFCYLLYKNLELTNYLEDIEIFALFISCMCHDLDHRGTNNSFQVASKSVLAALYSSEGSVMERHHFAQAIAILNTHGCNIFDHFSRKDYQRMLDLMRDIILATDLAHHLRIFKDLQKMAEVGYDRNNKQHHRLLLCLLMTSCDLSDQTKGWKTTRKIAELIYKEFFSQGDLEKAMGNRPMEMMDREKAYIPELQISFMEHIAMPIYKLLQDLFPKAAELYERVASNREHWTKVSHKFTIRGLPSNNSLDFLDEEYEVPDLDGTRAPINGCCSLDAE

Consider `Cc1nc2c(c(CF)nn2C(c2ccc(C(F)(F)F)cc2)C2(C)CC2)c(=O)[nH]1` (single isomer, unassigned) [Example 209], for which the inhibition constant Ki under setting [1] turned out to be 0.99 nM.

On to `Cc1nc2c(c(CO)nn2C(C)c2ccc(OC(F)(F)F)cc2)c(=O)[nH]1` (centres unmarked) [Example 4], for which the Ki is, setting by setting: under setting [2], 4.6 nM; under setting [1], 5.9 nM.

As to `COc1ccc(Cc2nc3c(c(C(F)F)nn3C(C)c3ccc(C(F)(F)F)cc3)c(=O)[nH]2)cc1OC` (single isomer, unassigned) [Example 196], under setting [1], the Ki was determined as 61 nM.

As to `Cc1nc2c(c(CF)nn2C2(c3ccc(C(F)(F)F)cc3)CCC2)c(=O)[nH]1` [Example 202, 3-(Fluoromethyl)-6-methyl-1-(1-(4-(trifluoromethyl)phenyl)cyclobutyl)-1H-pyrazolo[3,4-d]pyrimidin-4(5H)-one], the Ki under setting [1] was determined as 2.9 nM.

On to `Cc1nc2c(c(CF)nn2C(c2ccc(C(F)(F)F)cc2)C(C)C)c(=O)[nH]1` (single isomer, unassigned) [Example 213, (S)- or (R)-3-(Fluoromethyl)-6-methyl-1-(2-methyl-1-(4-(trifluoromethyl)phenyl)propyl)-1H-pyrazolo[3,4-d]pyrimidin-4(5H)-one], for which the Ki under setting [1] is 0.19 nM.

With `COc1cccc(-c2nc3c(c(C)nn3C(C)c3ccc(C(F)(F)F)cc3)c(=O)[nH]2)c1` (centres unmarked) [Example 47, 6-(3-Methoxyphenyl)-3-methyl-1-{1-[4-(trifluoromethyl)phenyl]ethyl}-1,5-dihydro-4H-pyrazolo[3,4-d]pyrimidin-4-one], the Ki under setting [2] was 17 nM.

`Cc1nc2c(c(C(C)(C)O)nn2C(C)c2ccc(C(F)(F)F)cc2)c(=O)[nH]1` (centres unmarked) [Example 326, 3-(1-Hydroxy-1-methylethyl)-6-methyl-1-{1-[4-(trifluoromethyl)phenyl]ethyl}-1,5-dihydro-4H-pyrazolo[3,4-d]pyrimidin-4-one]: the inhibition constant Ki under setting [2] amounted to 70 nM.

As for `Cc1nc2c(c(CO)nn2C(c2ccc(C(F)(F)F)cc2)C(F)(F)F)c(=O)[nH]1` (centres unmarked) [Example 6, 3-(Hydroxymethyl)-6-methyl-1-(2,2,2-trifluoro-1-(4-(trifluoromethyl)phenyl)ethyl)-1H-pyrazolo[3,4-d]pyrimidin-4(5H)-one], the Ki under setting [1] was 3.1 nM.

With `Cc1nc2c(c(CF)nn2C(c2ccc(C(F)(F)F)cc2)C(C)C)c(=O)[nH]1` (single isomer, unassigned) [Example 212, (R)- or (S)-3-(Fluoromethyl)-6-methyl-1-(2-methyl-1-(4-(trifluoromethyl)phenyl)propyl)-1H-pyrazolo[3,4-d]pyrimidin-4(5H)-one], the Ki under setting [1] amounted to 43 nM.

Turning to `Cc1nc2c(c(CO)nn2C(C)c2ccc(C(F)(F)F)cc2)c(=O)[nH]1` (single isomer, unassigned) [Example 26, (R)- or (S)-3-(Hydroxymethyl)-6-methyl-1-{1-[4-(trifluoromethyl)phenyl]ethyl}-1,5-dihydro-4H-pyrazolo[3,4-d]pyrimidin-4-one], the Ki is, setting by setting: under setting [2], 130 nM; under setting [1], 236 nM.

On to `Cc1nc2c(c(CO)nn2C(c2ccc(OC(F)(F)F)c(F)c2)C(C)C)c(=O)[nH]1` (single isomer, unassigned) [Example 127, (S)- or (R)-1-(1-(3-Fluoro-4-(trifluoromethoxy)phenyl)-2-methylpropyl)-3-(hydroxymethyl)-6-methyl-1H-pyrazolo[3,4-d]pyrimidin-4(5H)-one], for which the inhibition constant (Ki) under setting [1] was determined as 0.98 nM.

Regarding `Cc1nc2c(c(CO)nn2C(C)c2ccc(C3CC3)cc2)c(=O)[nH]1` (centres unmarked) [Example 3, 1-(1-(4-Cyclopropylphenl)ethyl)-3-(hydroxymethyl)-6-methyl-1H-pyrazolo[3,4-d]pyrimidin-4(5H)-one], under setting [1], the inhibition constant (Ki) came out at 3.7 nM.

As to `Cc1nc2c(c(CF)nn2C(C)c2ccc(OC(F)(F)F)cc2)c(=O)[nH]1` (single isomer, unassigned) [Example 207, (S)- or (R)-3-(Fluoromethyl)-6-methyl-1-(1-(4-(trifluoromethoxy)phenyl)ethyl)-1H-pyrazolo[3,4-d]pyrimidin-4(5H)-one], under setting [1], the Ki came to 1.1 nM.

Take `COc1ccc(Cc2nc3c(c(C)nn3C(C)c3ccc(C(F)(F)F)cc3)c(=O)[nH]2)cc1OC` (centres unmarked) [Example 44, 6-(3,4-Dimethoxybenzyl)-3-methyl-1-{1-[4-(trifluoromethyl)phenyl]ethyl}-1,5-dihydro-4H-pyrazolo[3,4-d]pyrimidin-4-one]: the inhibition constant Ki under setting [2] turned out to be 2.1 nM.

For `Cc1nn(C(C)c2ccc(C(F)(F)F)cc2)c2nc(-c3ccccn3)[nH]c(=O)c12` (centres unmarked) [Example 52, 3-Methyl-6-pyridin-2-yl-1-{1-[4-(trifluoromethyl)phenyl]ethyl}-1,5-dihydro-4H-pyrazolo[3,4-d]pyrimidin-4-one], the Ki under setting [2] worked out at 18 nM.

For the compound `Cc1nc2c(c(C(F)F)nn2C(C)c2ccc(OC(F)F)cc2)c(=O)[nH]1` (single isomer, unassigned) [Example 182, (S)- or (R)-1-(1-(4-(Difluoromethoxy)phenyl)ethyl)-3-(difluoromethyl)-6-methyl-1H-pyrazolo[3,4-d]pyrimidin-4(5H)-one], the Ki under setting [1] was 0.84 nM.

Regarding `COc1ccc(C(=O)c2nc3c(c(C(F)F)nn3C(C)c3ccc(C(F)(F)F)cc3)c(=O)[nH]2)cc1OC` (centres unmarked) [Example 198, 3-(Difluoromethyl)-6-(3,4-dimethoxybenzoyl)-1-(1-(4-(trifluoromethyl)phenyl)ethyl)-1H-pyrazolo[3,4-d]pyrimidin-4(5H)-one], under setting [1], the Ki was found to be 21 nM.

On to `Cc1nc2c(c(CO)nn2C(C)c2ccc(C(F)(F)F)c(F)c2)c(=O)[nH]1` (single isomer, unassigned) [Example 12, (R)- or (S)-1-(1-(3-Fluoro-4-(trifluoromethyl)phenyl)ethyl)-3-(hydroxymethyl)-6-methyl-1H-pyrazolo[3,4-d]pyrimidin-4(5H)-one], for which the inhibitory constant (Ki) under setting [1] worked out at 205 nM.

`Cc1nn(C(C)c2ccc(C(F)(F)F)cc2)c2nc(Cc3ccccc3O)[nH]c(=O)c12` (centres unmarked) [Example 31, 6-(2-Hydroxybenzyl)-3-methyl-1-(1-(4-(trifluoromethyl)phenyl)ethyl)-1H-pyrazolo[3,4-d]pyrimidin-4(5H)-one]: the Ki under setting [2] was found to be 43 nM.

For the compound `Cc1nc2c(c(CF)nn2C(c2ccc(C(F)(F)F)cc2)C2CC2)c(=O)[nH]1` (centres unmarked) [Example 231, 1-(cyclopropyl(4-(trifluoromethyl)phenyl)methyl)-3-(fluoromethyl)-6-methyl-1H-pyrazolo[3,4-d]pyrimidin-4(5H)-one], the Ki stood at 0.39 nM under setting [2] and 0.97 nM under setting [1].

Regarding `Cc1nn(C(C)c2ccc(C(F)(F)F)cc2)c2nc(C3CC3)[nH]c(=O)c12` (centres unmarked) [Example 42, 6-Cyclopropyl-3-methyl-1-{1-[4-(trifluoromethyl)phenyl]ethyl}-1,5-dihydro-4H-pyrazolo[3,4-d]pyrimidin-4-one], the Ki under setting [2] amounted to 40 nM.

In the case of `Cc1nn(C(C)c2ccc(C(F)(F)F)cc2)c2nc(C(C)C)[nH]c(=O)c12` (centres unmarked) [Example 43, 3-Methyl-6-(1-methylethyl)-1-{1-[4-(trifluoromethyl)phenyl]ethyl}-1,5-dihydro-4H-pyrazolo[3,4-d]pyrimidin-4-one], the inhibitory constant (Ki) under setting [2] came to 132 nM.

For the compound `Cc1nn(C(C)c2ccc(C(F)(F)F)cc2)c2nc(C3CCCC3)[nH]c(=O)c12` (centres unmarked) [Example 40, 6-Cyclopentyl-3-methyl-1-{1-[4-(trifluoromethyl)phenyl]ethyl}-1,5-dihydro-4H-pyrazolo[3,4-d]pyrimidin-4-one], the Ki under setting [2] stood at 197 nM.
